Assay results from US9850283B2, “Macrocyclic inhibitors of the PD-1/PD-L1 and CD80(B7-1)/PD-L1 protein/protein interactions” (BRISTOL-MYERS SQUIBB COMPANY, priority 2013, dated 2017).
Like-named read-outs stand apart in the source and are kept apart here. Positions of bridges follow the written chain, without caps; N, C: chain ends. Non-standard residues stand in square brackets, D forms with d. Residues, ends and D or L forms follow the SMILES beside them. ξ: configuration not given here. *: point of attachment. Ile(3ξ) = CCC(C)[C@H](N)C(=O)O; Thr(3ξ) = CC(O)[C@H](N)C(=O)O; NMeNle = CCCC[C@H](NC)C(=O)O; NMeS = CN[C@@H](CO)C(=O)O; NMeA = CN[C@@H](C)C(=O)O; Bn = c1ccc(C*)cc1; Sar = CNCC(=O)O

How the values were obtained:
[1] = molecular target: T1, Human PD-L1/PD-1 (Homo sapiens, UniProt Q9NZQ7); test: HTRF PD-1-Ig/PD-L1-His binding assay (human PD-L1)
T1 construct: made in house; host or cells: HEK293T
Method in brief: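 HTRF read-out: Eu cryptate anti-Ig mAb 1 nM final, APC anti-His mAb 20 nM final, added over the binding reaction. Proteins were PD-1-Ig and PD-L1-His ectodomain fusions. Buffer was dPBS, 0.1% BSA, 0.05% Tween-20.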

[2] = molecular target: T2, LK35.2-hPD-L1 cells / PE-labeled PD-1-Ig (Homo sapiens, UniProt Q9NZQ7); test: LK35.2-hPD-L1 cell binding high-content screening assay; assay type: cell-based; details: cell binding assay, cell line not given
T2 construct: expressed in transfected cells; host or cells: LK35.2 mouse B cell line
Method in brief: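 Fluorescent PD-1-Ig binding to PD-L1-expressing LK35.2 cells, imaged after washing. Conditions: 1 nM PE-PD-1-Ig, 37 °C, 1 h, RPMI with 10% fetal calf serum.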

[3] = cluster symbol, read-out: HTRF IC50 cluster
[4] = cluster symbol, read-out: CBA IC50 cluster
[5] = value given instead of cluster, read-out: CBA IC50 value

T2 sequence (Q9NZQ7 19-290): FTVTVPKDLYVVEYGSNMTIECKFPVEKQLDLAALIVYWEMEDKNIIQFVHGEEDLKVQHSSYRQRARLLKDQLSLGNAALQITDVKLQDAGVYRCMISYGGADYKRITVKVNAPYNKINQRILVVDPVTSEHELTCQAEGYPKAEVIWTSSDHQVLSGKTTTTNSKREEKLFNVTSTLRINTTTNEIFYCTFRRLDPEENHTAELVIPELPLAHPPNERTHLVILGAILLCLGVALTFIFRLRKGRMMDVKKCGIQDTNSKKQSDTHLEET
T1 sequence (Q9NZQ7 with tags, fused parts or gaps): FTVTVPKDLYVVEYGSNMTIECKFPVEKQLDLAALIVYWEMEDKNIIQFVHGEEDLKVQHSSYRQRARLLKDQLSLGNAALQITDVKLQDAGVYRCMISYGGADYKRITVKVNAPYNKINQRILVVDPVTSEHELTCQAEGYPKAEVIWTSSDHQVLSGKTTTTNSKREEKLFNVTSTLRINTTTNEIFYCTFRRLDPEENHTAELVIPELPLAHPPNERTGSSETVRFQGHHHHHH

Row | Structure (SMILES) | IC50 [1, 3] | IC50 [2, 4] | IC50 [2, 5] | IC50 ([1]; value given instead of cluster, read-out: HTRF IC50 value)
1 | CCCC[C@H]1C(=O)N(C)[C@@H](CCCC)C(=O)N[C@@H](CCCNC(=N)N)C(=O)N[C@H](C(=O)NCC(N)=O)CSCC(=O)N[C@@H](Cc2ccccc2)C(=O)N(C)[C@@H](C)C(=O)N[C@@H](CC(N)=O)C(=O)N2CCC[C@H]2C(=O)N[C@@H](Cc2cnc[nH]2)C(=O)N[C@@H](C(C)C)C(=O)N(C)CC(=O)N[C@@H](Cc2c[nH]c3ccccc23)C(=O)N[C@@H](CO)C(=O)N[C@@H](Cc2c[nH]c3ccccc23)C(=O)N1C [Example 6007] ({CH2CO}-F[NMeA]NPHV[Sar]WSW[NMeNle][NMeNle]RCG-NH2; thioether N-14) | 6.76 to 30.3 nM | 4.78 to 72.9 nM |  | 
2 | CCCC[C@H]1C(=O)N(C)[C@@H](CCCC)C(=O)N[C@@H](CCCNC(=N)N)C(=O)N[C@H](C(=O)NCC(N)=O)CSCC(=O)N[C@@H](Cc2ccccc2)C(=O)N(C)[C@@H](C)C(=O)N[C@@H](CC(N)=O)C(=O)N2CCC[C@H]2C(=O)N[C@@H](Cc2cnc[nH]2)C(=O)N[C@@H](Cc2cnc[nH]2)C(=O)N(C)CC(=O)N[C@@H](Cc2c[nH]c3ccccc23)C(=O)N[C@@H](CO)C(=O)N[C@@H](Cc2c[nH]c3ccccc23)C(=O)N1C [Example 6008] ({CH2CO}-F[NMeA]NPHH[Sar]WSW[NMeNle][NMeNle]RCG-NH2; thioether N-14) | > 30.5 nM | > 74.3 nM |  | 
3 | CCCC[C@H]1C(=O)N(C)[C@@H](CCCC)C(=O)N[C@@H](CCCNC(=N)N)C(=O)N[C@H](C(=O)NCC(N)=O)CSCC(=O)N[C@@H](Cc2ccccc2)C(=O)N(C)[C@@H](C)C(=O)N[C@@H](CC(N)=O)C(=O)N2CCC[C@H]2C(=O)N[C@@H](Cc2cnc[nH]2)C(=O)N[C@@H](Cc2c[nH]c3ccccc23)C(=O)N(C)CC(=O)N[C@@H](Cc2c[nH]c3ccccc23)C(=O)N[C@@H](CO)C(=O)N[C@@H](Cc2c[nH]c3ccccc23)C(=O)N1C [Example 6009] ({CH2CO}-F[NMeA]NPHW[Sar]WSW[NMeNle][NMeNle]RCG-NH2; thioether N-14) |  |  | 158 nM | 69.7 nM
4 | CCCC[C@H]1C(=O)N(C)[C@@H](CCCC)C(=O)N[C@@H](CCCNC(=N)N)C(=O)N[C@H](C(=O)NCC(N)=O)CSCC(=O)N[C@@H](Cc2ccccc2)C(=O)N(C)[C@@H](C)C(=O)N[C@@H](CC(N)=O)C(=O)N2CCC[C@H]2C(=O)N[C@@H](Cc2cnc[nH]2)C(=O)N[C@@H](C(C)CC)C(=O)N(C)CC(=O)N[C@@H](Cc2c[nH]c3ccccc23)C(=O)N[C@@H](CO)C(=O)N[C@@H](Cc2c[nH]c3ccccc23)C(=O)N1C (stereo partly shown) [Example 6011] ({CH2CO}-F[NMeA]NPH[Ile(3ξ)][Sar]WSW[NMeNle][NMeNle]RCG-NH2; thioether N-14) | 6.76 to 30.3 nM | 4.78 to 72.9 nM |  | 
5 | CC(C)C[C@@H]1NC(=O)[C@H](Cc2cnc[nH]2)NC(=O)[C@@H]2CCCN2C(=O)[C@H](CC(N)=O)NC(=O)[C@H](C)N(C)C(=O)[C@H](Cc2ccccc2)NC(=O)CSC[C@@H](C(=O)NCC(N)=O)NC(=O)[C@H](CCCNC(=N)N)NC(=O)[C@H](C)N(C)C(=O)[C@H](COCc2ccccc2)N(C)C(=O)[C@H](Cc2c[nH]c3ccccc23)NC(=O)[C@H](CO)NC(=O)[C@H](Cc2c[nH]c3ccccc23)NC(=O)CN(C)C1=O [Example 6012] ({CH2CO}-F[NMeA]NPHL[Sar]WSW[NMeS](Bn)[NMeA]RCG-NH2; thioether N-14) | 6.76 to 30.3 nM | 4.78 to 72.9 nM |  | 
6 | CCCC[C@H]1C(=O)N[C@@H](CCCNC(=N)N)C(=O)N[C@H](C(=O)NCC(N)=O)CSCC(=O)N[C@@H](Cc2ccccc2)C(=O)N(C)[C@@H](C)C(=O)N[C@@H](CC(N)=O)C(=O)N2CCC[C@H]2C(=O)N[C@@H](Cc2cnc[nH]2)C(=O)N[C@@H](CC(C)C)C(=O)N(C)CC(=O)N[C@@H](Cc2c[nH]c3ccccc23)C(=O)N[C@@H](CO)C(=O)N[C@@H](Cc2c[nH]c3ccccc23)C(=O)N(C)[C@@H](COCc2ccccc2)C(=O)N1C [Example 6013] ({CH2CO}-F[NMeA]NPHL[Sar]WSW[NMeS](Bn)[NMeNle]RCG-NH2; thioether N-14) | 6.76 to 30.3 nM | 4.78 to 72.9 nM |  | 
7 | CCCC[C@H]1C(=O)N(C)[C@@H](CCCC)C(=O)N[C@@H](CCCNC(=N)N)C(=O)N[C@H](C(=O)NCC(N)=O)CSCC(=O)N[C@@H](Cc2ccccc2)C(=O)N(C)[C@@H](C)C(=O)N[C@@H](CC(N)=O)C(=O)N2CCC[C@H]2C(=O)N[C@@H](Cc2cnc[nH]2)C(=O)N[C@@H](Cc2ccc(O)cc2)C(=O)N(C)CC(=O)N[C@@H](Cc2c[nH]c3ccccc23)C(=O)N[C@@H](CO)C(=O)N[C@@H](Cc2c[nH]c3ccccc23)C(=O)N1C [Example 6014] ({CH2CO}-F[NMeA]NPHY[Sar]WSW[NMeNle][NMeNle]RCG-NH2; thioether N-14) | 6.76 to 30.3 nM | 4.78 to 72.9 nM |  | 
8 | CC(C)C[C@@H]1NC(=O)[C@H](Cc2cnc[nH]2)NC(=O)[C@@H]2CCCN2C(=O)[C@H](CC(N)=O)NC(=O)[C@H](C)N(C)C(=O)[C@H](Cc2ccccc2)NC(=O)CSC[C@@H](C(=O)NCC(N)=O)NC(=O)[C@H](CCCNC(=N)N)NC(=O)[C@H](COCc2ccccc2)N(C)C(=O)[C@H](C)N(C)C(=O)[C@H](Cc2c[nH]c3ccccc23)NC(=O)[C@H](CO)NC(=O)[C@H](Cc2c[nH]c3ccccc23)NC(=O)CN(C)C1=O [Example 6015] ({CH2CO}-F[NMeA]NPHL[Sar]WSW[NMeA][NMeS](Bn)RCG-NH2; thioether N-14) | > 30.5 nM | 4.78 to 72.9 nM |  | 

More lines, now with the values ahead:

Row | IC50 [1, 3] | IC50 [2, 4] | IC50 [2, 5] | IC50 ([1]; value given instead of cluster, read-out: HTRF IC50 value) | Structure (SMILES)
9 | 6.76 to 30.3 nM | 4.78 to 72.9 nM |  |  | CCCC[C@H]1C(=O)N(C)[C@@H](CCCC)C(=O)N[C@@H](CCCNC(=N)N)C(=O)N[C@H](C(=O)NCC(=O)NCC(N)=O)CSCC(=O)N[C@@H](Cc2ccccc2)C(=O)N(C)[C@@H](C)C(=O)N[C@@H](CC(N)=O)C(=O)N2CCC[C@H]2C(=O)N[C@@H](Cc2cnc[nH]2)C(=O)N[C@@H](CC(C)C)C(=O)N(C)CC(=O)N[C@@H](Cc2c[nH]c3ccccc23)C(=O)N[C@@H](CO)C(=O)N[C@@H](Cc2c[nH]c3ccccc23)C(=O)N1C [Example 6001] ({CH2CO}-F[NMeA]NPHL[Sar]WSW[NMeNle][NMeNle]RCGG-NH2; thioether N-14)
10 | 6.76 to 30.3 nM |  | 72.9 nM |  | CCCC[C@H]1C(=O)N(C)[C@@H](CCCC)C(=O)N[C@@H](CCCNC(=N)N)C(=O)N[C@H](C(=O)NCC(N)=O)CSCC(=O)N[C@@H](Cc2ccccc2)C(=O)N(C)[C@@H](C)C(=O)N[C@@H](CC(N)=O)C(=O)N2CCC[C@H]2C(=O)N[C@@H](Cc2cnc[nH]2)C(=O)N[C@@H](CCCNC(=N)N)C(=O)N(C)CC(=O)N[C@@H](Cc2c[nH]c3ccccc23)C(=O)N[C@@H](CO)C(=O)N[C@@H](Cc2c[nH]c3ccccc23)C(=O)N1C [Example 6003] ({CH2CO}-F[NMeA]NPHR[Sar]WSW[NMeNle][NMeNle]RCG-NH2; thioether N-14)
11 | 6.76 to 30.3 nM | 4.78 to 72.9 nM |  |  | CCCC[C@H]1C(=O)N(C)[C@@H](CCCC)C(=O)N[C@@H](CCCNC(=N)N)C(=O)N[C@H](C(=O)NCC(N)=O)CSCC(=O)N[C@@H](Cc2ccccc2)C(=O)N(C)[C@@H](C)C(=O)N[C@@H](CC(N)=O)C(=O)N2CCC[C@H]2C(=O)N[C@@H](Cc2cnc[nH]2)C(=O)N[C@@H](CCCCN)C(=O)N(C)CC(=O)N[C@@H](Cc2c[nH]c3ccccc23)C(=O)N[C@@H](CO)C(=O)N[C@@H](Cc2c[nH]c3ccccc23)C(=O)N1C [Example 6004] ({CH2CO}-F[NMeA]NPHK[Sar]WSW[NMeNle][NMeNle]RCG-NH2; thioether N-14)
12 | 6.76 to 30.3 nM | 4.78 to 72.9 nM |  |  | CCCC[C@H]1C(=O)N(C)[C@@H](CCCC)C(=O)N[C@@H](CCCNC(=N)N)C(=O)N[C@H](C(=O)NCC(N)=O)CSCC(=O)N[C@@H](Cc2ccccc2)C(=O)N(C)[C@@H](C)C(=O)N[C@@H](CC(N)=O)C(=O)N2CCC[C@H]2C(=O)N[C@@H](Cc2cnc[nH]2)C(=O)N[C@@H](C(C)O)C(=O)N(C)CC(=O)N[C@@H](Cc2c[nH]c3ccccc23)C(=O)N[C@@H](CO)C(=O)N[C@@H](Cc2c[nH]c3ccccc23)C(=O)N1C (stereo partly shown) [Example 6005] ({CH2CO}-F[NMeA]NPH[Thr(3ξ)][Sar]WSW[NMeNle][NMeNle]RCG-NH2; thioether N-14)
13 | 6.76 to 30.3 nM | 4.78 to 72.9 nM |  |  | CCCC[C@H]1C(=O)N(C)[C@@H](CCCC)C(=O)N[C@@H](CCCNC(=N)N)C(=O)N[C@H](C(=O)NCC(N)=O)CSCC(=O)N[C@@H](Cc2ccccc2)C(=O)N(C)[C@@H](C)C(=O)N[C@@H](CC(N)=O)C(=O)N2CCC[C@H]2C(=O)N[C@@H](Cc2cnc[nH]2)C(=O)N[C@@H](CCC(N)=O)C(=O)N(C)CC(=O)N[C@@H](Cc2c[nH]c3ccccc23)C(=O)N[C@@H](CO)C(=O)N[C@@H](Cc2c[nH]c3ccccc23)C(=O)N1C [Example 6006] ({CH2CO}-F[NMeA]NPHQ[Sar]WSW[NMeNle][NMeNle]RCG-NH2; thioether N-14)
14 | > 30.5 nM | > 74.3 nM |  |  | CCCC[C@H]1C(=O)N(C)[C@@H](CCCC)C(=O)N[C@@H](CCCNC(=N)N)C(=O)N[C@H](C(=O)NCC(N)=O)CSCC(=O)N[C@@H](Cc2ccccc2)C(=O)N(C)[C@@H](C)C(=O)N[C@@H](CC(N)=O)C(=O)N2CCC[C@H]2C(=O)N[C@@H](Cc2cnc[nH]2)C(=O)N[C@@H](CO)C(=O)N(C)CC(=O)N[C@@H](Cc2c[nH]c3ccccc23)C(=O)N[C@@H](CO)C(=O)N[C@@H](Cc2c[nH]c3ccccc23)C(=O)N1C [Example 6010] ({CH2CO}-F[NMeA]NPHS[Sar]WSW[NMeNle][NMeNle]RCG-NH2; thioether N-14)
